From patent US11866414B2, “Substituted heterocyclic compounds” (BRISTOL-MYERS SQUIBB COMPANY, priority 2021, dated 2024)
Like-named read-outs stand apart in the source and are kept apart here. Marks after values point to notes of the source that are not given here.

Legend:
[1] = Bidirectional permeability assay in Caco-2 cells; conditions: human, Caco-2, pH 7.4
Caco-2 cells [2] = conditions: human, Caco-2, 2 h, 3 μM, pH 7.4
[3] = Brain penetration in vivo assay (brain and plasma exposure); set-up: species or system mouse
[4] = tested on: IFNα-induced STAT phosphorylation (pSTAT5); assay: IFNα-induced STAT phosphorylation in human whole blood; format: cell-based; conditions: 1 h compound, 1000 U/mL IFNα A/D 15 min, CD3 positive population, read-out: Human Whole blood IFNa pSTAT5 IC50
in vitro = conditions: human, Caco-2, pH 7.4
[5] = Brain penetration in vivo assay (brain and plasma exposure)
Protocol: Brain Penetration In Vivo Assay
A pharmacokinetic study was performed using C57BL6 wild-type mice (n=3 per experiment) to determine brain and plasma exposure of compounds of the invention. The compound was administered orally in a solution of 5% ETHANOL: 90% PEG 300; 5% TPGS at 5 mL/kg for a final concentration of 10 mg/kg. Nice were euthanized 1 hour post-dose and plasma and brain were collected and frozen for analysis. Brain tissues were homogenized in a 1:1 volume of blank C57BL6 mouse plasma. Concentrations of the compound in plasma and brain homogenate were determined by LC-MS analysis.

Caco-2 cells [6] = assay: Bidirectional permeability assay in Caco-2 cells; conditions: for Efflux Ratio: Caco-2, 3 μM, pH 7.4, 2 hours; for CACO2 (A-B): permeability coefficient apical-to-basolateral, 3 μM, pH 7.4, 0.5% BSA, 2 hours, 37° C.

Structure (SMILES): C[C@H]1O[C@@H](O[C@H]2[C@@H](O)C[C@H](O[C@H]3[C@@H](O)C[C@H](O[C@H]4CC[C@@]5(C)[C@H](CC[C@@H]6[C@@H]5C[C@@H](O)[C@]5(C)[C@@H](C7=CC(=O)OC7)CC[C@]65O)C4)O[C@@H]3C)O[C@@H]2C)C[C@H](O)[C@@H]1O [Digoxin, reference compound]
- Papp A→B at 2 h, 3 μM [1]: 1.8 ± 0.7 ×10⁻⁶ cm/s
- Papp B→A at 2 h, 3 μM [1]: 26.5 ± 7.4 ×10⁻⁶ cm/s
- efflux ratio at 2 h, 3 μM [1]: 14.7

Structure (SMILES): [2H]C([2H])([2H])NC(=O)c1nnc(NC(=O)C2CC2)cc1Nc1cccc(-c2cnn(CCF)n2)c1OC [Example 2, 6-cyclopropaneamido-4-({3-[2-(2-fluoroethyl)-2H-1,2,3-triazol-4-yl]-2-methoxyphenyl}amino)-N—(^2H3)methylpyridazine-3-carboxamide]
- CACO2 (A-B) (Caco-2 cells [2]): 427 nm/s
- Ratio of exposure in brain to plasma (mouse) ([3]; footnote *: 2 mpk iv solution dose): 0.1*

Structure (SMILES): [2H]C([2H])([2H])NC(=O)c1nnc(NC(=O)OC)cc1Nc1cccc(-c2cnn(C)n2)c1OC [Example 7, methyl N-(5-{[2-methoxy-3-(2-methyl-2H-1,2,3-triazol-4-yl)phenyl]amino}-6-[(^2H3)methylcarbamoyl]pyridazin-3-yl)carbamate]
- IC50 [4]: 390 nM
- Kp at 40 min ([3]; C57BL6, mouse, brain / plasma, 2 mg/kg, footnote **: 2 mpk iv solution dose, exposures measured at 40 minutes, read-out: Ratio of exposure in brain to plasma (mouse)): 0.5
- Papp A→B at 2 h, 3 μM (in vitro): 41.6 ×10⁻⁶ cm/s
- efflux ratio at 2 h, 3 μM (in vitro): 0.4

Structure (SMILES): [2H]C([2H])([2H])NC(=O)c1nnc(NC(=O)[C@@H]2CC23CC3)cc1Nc1cccc(-c2cnn(C)n2)c1OC [Example 13, 4-{[2-methoxy-3-(2-methyl-2H-1,2,3-triazol-4-yl)phenyl]amino}-N—(^2H3)methyl-6-[(1R)-spiro[2.2]pentane-1-amido]pyridazine-3-carboxamide]
- Ratio of exposure in brain to plasma (mouse) (1 h, 10 mpk, po) [5]: 0.4
- Efflux Ratio (Caco-2 cells [6]): 0.7
- CACO2 (A-B) (Caco-2 cells [6]): 251 nm/s

Structure (SMILES): [2H]C([2H])([2H])NC(=O)c1nnc(NC(=O)C2CC2)cc1Nc1cc(C)cc(-c2cnn(C)n2)c1OC [Example 17, 6-cyclopropaneamido-4-{[2-methoxy-5-methyl-3-(2-methyl-2H-1,2,3-triazol-4-yl)phenyl]amino}-N—(^2H3)methylpyridazine-3-carboxamide]
- CACO2 (A-B) (Caco-2 cells [2]): 282 nm/s
- Ratio of exposure in brain to plasma (mouse) (1 h, 10 mpk, po) ([3]; footnote ***: nanosupension in 0.5% methocel A4M, 0.1% tween 80, 99.4% water): 0.2***

Structure (SMILES): [2H]C([2H])([2H])NC(=O)c1nnc(NC(=O)N2CCC2)cc1Nc1cccc(-c2cnn(C)n2)c1OC [Example 51, 6-[(azetidine-1-carbonyl)amino]-4-{[2-methoxy-3-(2-methyl-2H-1,2,3-triazol-4-yl)phenyl]amino}-N—(^2H3)methylpyridazine-3-carboxamide]
- Efflux Ratio (Caco-2 cells [6]): 0.9
- CACO2 (A-B) (Caco-2 cells [6]): 429 nm/s

Structure (SMILES): [2H]C([2H])([2H])NC(=O)c1nnc(NC(=O)C2CC2)cc1Nc1cccc(-c2cnn(C3COC3)n2)c1OC [Example 53, 6-cyclopropaneamido-4-({2-methoxy-3-[2-(oxetan-3-yl)-2H-1,2,3-triazol-4-yl]phenyl}amino)-N—(^2H3)methylpyridazine-3-carboxamide]
- Efflux Ratio (Caco-2 cells [6]): 0.7
- CACO2 (A-B) (Caco-2 cells [6]): 425 nm/s

Structure (SMILES): [2H]C([2H])([2H])NC(=O)c1nnc(NC(=O)N(C)CC)cc1Nc1nccc(-c2cnn(C)n2)c1OC [Example 58, 6-{[ethyl(methyl)carbamoyl]amino}-4-{[3-methoxy-4-(2-methyl-2H-1,2,3-triazol-4-yl)pyridin-2-yl]amino}-N—(^2H3)methylpyridazine-3-carboxamide]
- Efflux Ratio (Caco-2 cells [6]): 0.6
- CACO2 (A-B) (Caco-2 cells [6]): 314 nm/s

Structure (SMILES): [2H]C([2H])([2H])NC(=O)c1nnc(NC(=O)N(C)C(C)C)cc1Nc1nccc(-c2cnn(C)n2)c1OC [Example 59, 4-{[3-methoxy-4-(2-methyl-2H-1,2,3-triazol-4-yl)pyridin-2-yl]amino}-N—(^2H3)methyl-6-{[methyl(propan-2-yl)carbamoyl]amino}pyridazine-3-carboxamide]
- Efflux Ratio (Caco-2 cells [6]): 0.8
- CACO2 (A-B) (Caco-2 cells [6]): 351 nm/s

Structure (SMILES): [2H]C([2H])([2H])NC(=O)c1nnc(NC(=O)C2CC2)cc1Nc1nc(F)cc(-c2cnn(C)n2)c1OC [Example 62, 6-(Cyclopropanecarboxamido)-4-((6-fluoro-3-methoxy-4-(2-methyl-2H-1,2,3-triazol-4-yl)pyridin-2-yl)amino)-N-(methyl-d3)pyridazine-3-carboxamide]
- IC50 [4]: 120 nM
- Kp at 1.5 h ([3]; C57BL6, mouse, brain / plasma, 2 mg/kg, footnote *****: 2 mpk iv solution dose, exposures measured at 90 minutes, read-out: Ratio of exposure in brain to plasma (mouse)): 0.6
- Papp A→B at 2 h, 3 μM (in vitro): 43.2 ×10⁻⁶ cm/s
- efflux ratio at 2 h, 3 μM (in vitro): 0.4
